According to patent US20070270484A1, “3'-N-Substituted-3-O-Substituted Erythronolide a Derivatives” (priority 2003, published 2007):
Converted amounts (≈) assume the structure as drawn.

Experiments:
S. pneum 1275 (erm) = assay: microbe, parasite or virus in culture; format: cell-based, streptococcus pneumoniae; conditions: for Minimum Inhibitory Concentrations, S. pneum 1275 (erm): agar dilution, 18-24 hours, 35±2° C., 5% CO2, erm: ribosomal modification (mutation) erm genes
Method: (§1) Drug dilutions and the agar plates are prepared by NCCLS method. Inoculum is prepared by direct colony suspensions in normal saline and adjusted to 0.5 McFarland turbidity and subsequently diluted as per NCCLS guidelines in order to obtain 10^4 CFU/spot. CFU/ml of a few randomly selected cultures is performed. The cultures are replicated on the agar plates using replicator (Denley's multipoint). The plates are incubated at 35±2° C. and in 5% CO2 atmosphere (for respiratory and Haemophilus strains) for 18-24 hours at 35±2° C. Minimum inhibitory concentrations (MIC) are determined after 18-24 hours. Q. C. strains are also included in each run of the study. The cation content of Mueller Hinton agar is checked by performing disk […] of 10 μg gentamicin disk against Pseudomonas aeroginosa ATCC 27853. The zone of inhibition should fall between 16-21 mm. The concentration of drug at which there is complete disappearance of growth spot or formation of less than 10 colonies per spot is considered as MIC.

S. pneum 1294 (mef) = assay: microbe, parasite or virus in culture; format: cell-based, streptococcus pneumoniae; conditions: for Minimum Inhibitory Concentrations, S. pneum 1294 (mef): agar dilution, 18-24 hours, 35±2° C., 5% CO2, mef: efflux pump mef genes
Method: as §1

S. pneum AB 14 (erm) = assay: microbe, parasite or virus in culture; format: cell-based, streptococcus pneumoniae; conditions: for Minimum Inhibitory Concentrations, S. pneum AB 14 (erm): agar dilution, 18-24 hours, 35±2° C., 5% CO2, erm: ribosomal modification (mutation) erm genes
Method: as §1

S. pneum AB 30 (erm) = assay: microbe, parasite or virus in culture; format: cell-based, streptococcus pneumoniae; conditions: for Minimum Inhibitory Concentrations, S. pneum AB 30 (erm): agar dilution, 18-24 hours, 35±2° C., 5% CO2, erm: ribosomal modification (mutation) erm genes
Method: as §1

S. pneum 1256 (erm) = assay: microbe, parasite or virus in culture; format: cell-based, streptococcus pneumoniae; conditions: for Minimum Inhibitory Concentrations, S. pneum 1256 (erm): agar dilution, 18-24 hours, 35±2° C., 5% CO2, erm: ribosomal modification (mutation) erm genes
Method: as §1

S. pneum AB 29 (erm) = assay: microbe, parasite or virus in culture; format: cell-based, streptococcus pneumoniae; conditions: for Minimum Inhibitory Concentrations, S. pneum AB 29 (erm): agar dilution, 18-24 hours, 35±2° C., 5% CO2, erm: ribosomal modification (mutation) erm genes
Method: as §1

S. pneum ATCC 6303 = assay: MIC, agar incorporation method (NCCLS agar dilution method); format: cell-based, streptococcus pneumoniae; conditions: 35±2° C.; for Minimum Inhibitory Concentrations, S. pneum ATCC 6303: 18-24 hours, 5% CO2
Method: as §1

S. pneum CS 1687 (mef) = assay: as above; format: cell-based, streptococcus pneumoniae; conditions: 18-24 hours, 35±2° C., 5% CO2, mef: efflux pump mef genes
Method: as §1

S. pneum 1251 (mef) = assay: as above; format: cell-based, streptococcus pneumoniae; conditions: 18-24 hours, 35±2° C., 5% CO2, mef: efflux pump mef genes
Method: as §1

S. pneum ATCC 49619 = assay: as above; format: cell-based, streptococcus pneumoniae; conditions: 35±2° C.; for Minimum Inhibitory Concentrations, S. pneum ATCC 49619: 18-24 hours, 5% CO2
Method: as §1

S. pneum AB 34 (mef) = assay: as above; format: cell-based, streptococcus pneumoniae; conditions: 18-24 hours, 35±2° C., 5% CO2, mef: efflux pump mef genes
Method: as §1

MoraXella MI = assay: as above; format: cell-based; conditions: 18-24 hours, 35±2° C.
Method: as §1

H. inflenza ATCC 49247 = assay: as above; format: cell-based, Haemophilus influenzae; conditions: for Minimum Inhibitory Concentrations, H. inflenza ATCC 49247: agar dilution, 18-24 hours, 35±2° C., 5% CO2
Method: Minimum inhibitory concentrations (μg/ml) were obtained for representative compounds of the invention, which are given in Table 2.
as §1

| Molecule | Minimum Inhibitory Concentrations, S. pneum 1275 (erm) (S. pneum 1275 (erm)) [µg/mL] | Minimum Inhibitory Concentrations, S. pneum 1294 (mef) (S. pneum 1294 (mef)) [µg/mL] | Minimum Inhibitory Concentrations, S. pneum AB 14 (erm) (S. pneum AB 14 (erm)) [µg/mL] | Minimum Inhibitory Concentrations, S. pneum AB 30 (erm) (S. pneum AB 30 (erm)) [µg/mL] | Minimum Inhibitory Concentrations, S. pneum 1256 (erm) (S. pneum 1256 (erm)) [µg/mL] | Minimum Inhibitory Concentrations, S. pneum AB 29 (erm) (S. pneum AB 29 (erm)) [µg/mL] | Minimum Inhibitory Concentrations, S. pneum ATCC 6303 (S. pneum ATCC 6303) [µg/mL] | Minimum Inhibitory Concentrations, S. pneum CS 1687 (mef) (S. pneum CS 1687 (mef)) [µg/mL] | Minimum Inhibitory Concentrations, S. pneum 1251 (mef) (S. pneum 1251 (mef)) [µg/mL] | Minimum Inhibitory Concentrations, S. pneum ATCC 49619 (S. pneum ATCC 49619) [µg/mL] | Minimum Inhibitory Concentrations, S. pneum AB 34 (mef) (S. pneum AB 34 (mef)) [µg/mL] | Minimum Inhibitory Concentrations, MoraXella MI (MoraXella MI) [µg/mL] | Minimum Inhibitory Concentrations, H. inflenza ATCC 49247 (H. inflenza ATCC 49247) [µg/mL] | also measured |
| --- | --- | --- | --- | --- | --- | --- | --- | --- | --- | --- | --- | --- | --- | --- |
| CC[C@H]1OC(=O)[C@H](C)[C@@H](O[C@H]2C[C@@](C)(OC)[C@@H](O)[C@H](C)O2)[C@H](C)[C@@H](O[C@@H]2O[C@H](C)C[C@H](N(C)C)[C@H]2O)[C@](C)(OC)C[C@@H](C)C(=O)[C@H](C)[C@@H](O)[C@]1(C)O [C, Clarithromycin, reference compound] | – | – | – | – | – | – | – | – | – | – | – | – | – | MIC (S. pneum 1275 (erm); Streptococcus pneumoniae, read-out: Minimum Inhibitory Concentrations, S. pneum 1275 (erm)): > 16 µg/mL; MIC (S. pneum 1294 (mef); Streptococcus pneumoniae, read-out: Minimum Inhibitory Concentrations, S. pneum 1294 (mef)): > 16 µg/mL; MIC (S. pneum AB 14 (erm); Streptococcus pneumoniae, read-out: Minimum Inhibitory Concentrations, S. pneum AB 14 (erm)): > 16 µg/mL; MIC (S. pneum AB 30 (erm); Streptococcus pneumoniae, read-out: Minimum Inhibitory Concentrations, S. pneum AB 30 (erm)): > 16 µg/mL; MIC (S. pneum 1256 (erm); Streptococcus pneumoniae, read-out: Minimum Inhibitory Concentrations, S. pneum 1256 (erm)): > 16 µg/mL; MIC (S. pneum AB 29 (erm); Streptococcus pneumoniae, read-out: Minimum Inhibitory Concentrations, S. pneum AB 29 (erm)): > 16 µg/mL; MIC (S. pneum ATCC 6303; Streptococcus pneumoniae, ATCC6303, 18-24 hours, 5% CO2, read-out: Minimum Inhibitory Concentrations, S. pneum ATCC 6303): 0.008 µg/mL (≈ 0.0107 µM); MIC (S. pneum CS 1687 (mef); Streptococcus pneumoniae, read-out: Minimum Inhibitory Concentrations, S. pneum CS 1687 (mef)): > 16 µg/mL; MIC (S. pneum 1251 (mef); Streptococcus pneumoniae, read-out: Minimum Inhibitory Concentrations, S. pneum 1251 (mef)): 8 µg/mL (≈ 10.7 µM); MIC (S. pneum ATCC 49619; Streptococcus pneumoniae, ATCC49619, 18-24 hours, 5% CO2, read-out: Minimum Inhibitory Concentrations, S. pneum ATCC 49619): 0.008 µg/mL (≈ 0.0107 µM); MIC (S. pneum AB 34 (mef); Streptococcus pneumoniae, read-out: Minimum Inhibitory Concentrations, S. pneum AB 34 (mef)): > 16 µg/mL; MIC (MoraXella MI; Moraxella, read-out: Minimum Inhibitory Concentrations, MoraXella MI): 0.125 µg/mL (≈ 0.167 µM); MIC (H. inflenza ATCC 49247; Haemophilus influenzae, ATCC49247, read-out: Minimum Inhibitory Concentrations, H. inflenza ATCC 49247): 8 µg/mL (≈ 10.7 µM) |
| C#CCN(C)C1CC(C)OC(OC2C(C)C(OC(=O)Cc3ccc(F)cc3)C(C)C(=O)OC(CC)C(C)(O)C(O)C(C)C(=O)C(C)CC2(C)OC)C1O (stereo not drawn) [Compound No. 18, 3-O-(4-Fluorophenyl)acetyl-5-O-(3′-N-desmethyl-3′-N-propargyl)desosaminyl-6-O-methyl erythronolide A] | >16 | 1 | 16 | >16 | >16 | 1 | 1 | 1 | 1 | 1 | 1 | 16 | >16 | – |
| 3-O-(2-Fluorophenyl)acetyl-5-O-(3′-N-desmethyl-3′-N-propargyl)desosaminyl-6-O-methyl erythronolide A [Compound No. 21] | >16 | 2 | >16 | >16 | >16 | >16 | 0.5 | 0.5 | 0.25 | >16 | >16 | 0.25 | >16 | – |
